Test results as given in patent US11096968B2, “Use of anti-aging glycoprotein for enhancing survival of neurosensory precursor cells” (PROTOKINETIX INC., priority 2016, dated 2021).

Assays:
[1] = system: prostaglandin E2 (PGE2) secreted by degenerating retinal explants; assay: PGE2 ELISA of explant medium from ex vivo retinal explant/RPE co-culture; assay type: cell-based, rat; conditions: 4 mg/ml AAGP present for the first day, medium collected after 10 days of co-culture; n=3; p<0.05; without AAGP ~20 pg/ml
Method: (§1) FIG. 2 illustrates that AAGP™ reduces the amount of prostaglandin E2 (PGE2) secreted by degenerating explants and the level of COX-2 expression. PGE2 is toxic to photoreceptor precursor cells (PPCs). (A) Rat retinal explants were cultured in explant medium with or without 4 mg/ml AAGP (n=3 for each condition). Explant media was replaced after 24 hours and replenished every other day with medium not containing AAGP. After ten days, explant medium was collected and processed for PGE2 ELISA. Histograms represent the amount of PGE2 (pg/ml) present in the explant medium. (B) COX-2 expression was assessed by RT-qPCR in stressed ARPE-19 cells in the presence or absence of 4 mg/ml AAGP (n=4). Histograms represent fold change in COX-2 expression, normalized to GAPDH. […]
(§2) Firstly, the amount of PGE2 produced is determined within the ex vivo system under normal culture conditions and after media is supplemented with 4 mg/ml AAGP for the first 24 hours of co-culture. Three equal-sized retinal quadrants, measuring ˜10 mm^2 each, and are analyzed for each condition. Explant media are collected at the end of 10 days and assessed for concentration of PGE2 by enzyme-linked immunosorbent assay (ELISA; R&D Systems). PGE2 induced reduction in metabolic activity, contributing to cell death, is assessed in PPCs cultured in isolation using a Thiazolyl Blue Tetrazolium Bromide (MTT) assay (Sigma).

[2] = system: photoreceptor precursor cells (PPCs); assay: PPC survival in ex vivo co-culture system, viable labelled PPCs counted by FACS; assay type: cell-based, human; conditions: PPCs pre-treated 24 hours with 4 mg/ml AAGP, 10 days of co-culture
Method: FIG. 3 illustrates that Cell survival is enhanced by pre-incubation with AAGP™. Untreated or AAGP™-treated PPCs are fluorescently labelled and placed between retinal explants and RPE for ten days (n=4). Live PPCs are separated by Fluorescence-Activated Cell Sorting and the proportion of cells surviving after 10 days of co-culture was calculated. Percent cell survival of untreated and AAGP-treated PPCs was plotted ( ? ) and for each condition the average±SEM is represented by a thick black line.
To determine whether AAGP™ improves PPC survival in the ex vivo system, PPC cell viability is assessed with and without pre-treating cell grafts with AAGP™ for 24 hours prior to inclusion within the ex vivo system. PPCs are labelled with 20 μM CellTrace™ Far Red DDAO-SE (Life Technologies). […] After 10 days, the components of the co-culture system are enzymatically dissociated into single cell suspensions and the number of viable PPCs is assessed by Fluorescence-Activated Cell Sorting (FACS; Influx Sorter; BD Biosciences).
Finally, the viability of PPCs in the ex vivo system is tested. […] Ten days later, the co-cultured components were dissociated into single cells and viable PPCs (labeled red) were separated by Fluorescence activated cell sorting (FACS, FIG. 3). The proportion of live cells remaining after 10 days of co-culture is calculated. […]

[3] = system: PPCs; assay: Toxicity of AAGP to PPCs (unpublished data); assay type: cell-based, human; conditions: 4 mg/ml
Method: Now referring to FIG. 1, within the ex vivo system, rat neurosensory retinal explants are incubated upon human embryonic stem cells (hESC) derived retinal pigment epithelium (RPE). Neurosensory retina was obtained from the S334ter-4 model of retinal degeneration (Chen et al, 1995) and cultured within the system for 10 days (for detailed experimental design see Yanai et al., 2015). Rodent retinal tissue collection was carried out with approval of the Animal Care Committee at the University of British Columbia and in accordance with the Association for Research in Vision and Ophthalmology Statement for the Use of Animals in Ophthalmic and Vision Research. Throughout the present study, AAGP™ was used at 4 mg/ml, after it was confirmed it was not toxic to PPCs at this concentration (unpublished data).

[4] = system: COX-2 expression in stressed ARPE-19 cells; assay: COX-2 expression by RT-qPCR in ARPE-19 cell stress assay (IL-1β followed by ATP); assay type: cell-based, human; conditions: stressed ARPE-19 cells (17 ng/ml IL-1β 8 h, then 5 mM ATP 1 h) in presence of 4 mg/ml AAGP; normalized to GAPDH; n=4
Method: as §1, with “GAPDH. (C) Cultured PPCs were treated with increasing amounts of PGE2 for 48 hours, followed by the MTT assay (n=4).” for “GAPDH.”
To determine whether AAGP™ inhibits COX-2 expression, ARPE-19 cells (Dunn et al., 1996) are treated with 17 ng/ml Interleukin 1β (IL-1β; Sigma; Lukiw et al., 2006) for 8 hours and then added 5 mM ATP for 1 hour to further induce cell stress (Sigma; Mehta et al., 2001). […] COX-2 expression is assessed using Reverse Transcription Quantitative Polymerase Chain Reaction (RT-qPCR) with the TaqMan® primer/probe system, Fast Advanced Master Mix and the ViiA™ 7 Real Time PCR system (Applied Biosystems). […]

[5] = system: photoreceptor precursor cells (PPCs); assay: MTT assay of cultured PPCs treated with increasing amounts of PGE2; assay type: cell-based, human; conditions: PPCs cultured 48 hours with increasing PGE2, up to 50 μM; n=4
Method: as §1
as §2, with “(Sigma). […]” for “(Sigma).”

C[C@H](NC(=O)[C@H](C)NC(=O)[C@@H](N)CCCCNC(=O)C(F)(F)C1(O)O[C@H](CO)[C@H](O)[C@H](O)[C@H]1O)C(=O)O (some centres unmarked) [AAGP™]
amount of PGE2 in explant medium [1]: ~7.5 pg/mL
increase in average cell viability vs. untreated PPCs [2]: ~3 fold
toxicity to PPCs [3]: not toxic
decline in COX-2 expression [4]: at least 13.3±4.5 fold

CCCCC[C@H](O)/C=C/[C@H]1[C@H](O)CC(=O)[C@@H]1C/C=C\CCCC(=O)O [PGE2, prostaglandin E2]
reduction of cell survival (MTT) [5]: up to 44%
